What is called IC50 is the midpoint of a concentration-inhibition curve.

The source of these data is patent US9045461B2, “Phenyl-heteroaryl derivatives and methods of use thereof” (TransTech Pharma, LLC, priority 2010, dated 2015).

Structures can show the parent of a compound that is named as a salt.

In assay [1] the target is T1, sRAGE binding to β-amyloid (Homo sapiens, UniProt Q15109).
T1 construct: extracellular domain can be isolated by proteolysis of RAGE to generate soluble RAGE (sRAGE) comprised of the V and C domains
T1 sequence (Q15109 23-342 limits assumed): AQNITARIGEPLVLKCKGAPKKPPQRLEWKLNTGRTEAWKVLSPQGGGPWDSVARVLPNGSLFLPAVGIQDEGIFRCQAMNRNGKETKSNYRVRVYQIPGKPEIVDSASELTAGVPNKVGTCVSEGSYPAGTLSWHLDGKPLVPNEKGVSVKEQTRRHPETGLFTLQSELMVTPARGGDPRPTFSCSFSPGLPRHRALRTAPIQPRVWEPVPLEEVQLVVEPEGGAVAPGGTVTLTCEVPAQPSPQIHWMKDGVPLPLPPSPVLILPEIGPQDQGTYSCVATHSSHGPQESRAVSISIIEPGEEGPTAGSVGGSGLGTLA
The experiment in a line: RAGE binding assay (ELISA), β-amyloid as the RAGE ligand. Particulars: compounds tested in hydrochloride salt form, concentration at which 50% signal has been inhibited. The essentials:
(§1)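 Ligand (500 ng/well) coated in carbonate buffer pH 9.8 overnight at 4° C and blocked with 1% BSA; test compound (10-100 μM in water, 4% DMSO co-solvent) incubated with sRAGE (6 nM FAC) 1 h at 37° C. Bound sRAGE detected by anti-sRAGE/biotin-anti-mouse/AP-streptavidin with pNPP, A405. IC50 = 50% signal inhibition.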

A further assay deals with T2, sRAGE binding to S100b (Homo sapiens, UniProt Q15109).
T2 construct: extracellular domain can be isolated by proteolysis of RAGE to generate soluble RAGE (sRAGE) comprised of the V and C domains
T2 sequence (Q15109 23-342 limits assumed): as above
The experiment in a line: RAGE binding assay (ELISA), S100b as the RAGE ligand. Particulars: compounds tested in hydrochloride salt form, concentration at which 50% signal has been inhibited. Summed up: as §1

For `CCCCc1nnc(OC2CN3CCC2CC3)cc1-c1ccc(OC2CCCCC2)cc1` (stereo not drawn) [Example 26, 3-[6-Butyl-5-(4-cyclohexyloxy-phenyl)-pyridazin-3-yloxy]-1-azabicyclo[2.2.2]octane dihydrochloride], the IC50 in assay [1] came out at 1900 nM; on sRAGE binding to S100b, 2080 nM.
As to `CCCc1nnc(OC2CCN(C)CC2)cc1-c1ccc(OCc2ccccc2)cc1` [Example 12, 4-(4-Benzyloxy-phenyl)-6-(1-methyl-piperidin-4-yloxy)-3-propyl-pyridazine dihydrochloride], the IC50 in assay [1] stood at 1540 nM; at sRAGE binding to S100b, 1190 nM.
For `CCCCc1nnc(OC2CCN(C)CC2)cc1-c1ccc(OCC2CCN(C(C)=O)CC2)cc1` [Example 55, 1-(4-{4-[3-butyl-6-(1-methyl-piperidin-4-yloxy)-pyridazin-4-yl]-phenoxymethyl}-piperidin-1-yl)-ethanone dihydrochloride], in that order: 9180 nM and 3680 nM.
For the compound `CCCCc1nnc(O[C@@H]2CN(C)CC[C@H]2C(F)F)cc1-c1ccc(OC2CCCCC2)cc1` (racemic) [Example 48, (±)-trans-3-butyl-4-(4-cyclohexyloxy-phenyl)-6-(4-difluoromethyl-1-methyl-piperidin-3-yloxy)-pyridazine dihydrochloride], the values for the IC50 (in assay [1]; on sRAGE binding to S100b) were 8960 nM and 2600 nM, respectively.
`CCCCc1nnc(C(=O)N2CCC(CN(C)C)C(F)(F)C2)cc1-c1ccc(OC2CCCCC2)cc1` (stereo not drawn) [Example 105, [6-Butyl-5-(4-cyclohexyloxy-phenyl)-pyridazin-3-yl]-(4-dimethylaminomethyl-3,3-difluoro-piperidin-1-yl)-methanone dihydrochloride]: the IC50 in assay [1] worked out at 2120 nM; on sRAGE binding to S100b it was 1390 nM.
For the compound `CCCCc1nnc(C(=O)NCC2CCN(C)CC2)cc1-c1ccc(OCc2ccccc2)cc1` [Example 81, 5-(4-Benzyloxy-phenyl)-6-butyl-pyridazine-3-carboxylic acid (1-methyl-piperidin-4-ylmethyl)-amide dihydrochloride], the IC50 in assay [1] was found to be 1540 nM; on sRAGE binding to S100b, 1820 nM.
For `CCCCc1nnc(C(=O)NC[C@@H]2CCN(C)C[C@@H]2OC)cc1-c1ccc(OC2CCCCC2)cc1` (racemic) [Example 104, (±)-cis-6-Butyl-5-(4-cyclohexyloxy-phenyl)-pyridazine-3-carboxylic acid (3-methoxy-1-methyl-piperidin-4-ylmethyl)-amide dihydrochloride], the figures for the IC50 (in assay [1]; on sRAGE binding to S100b) were 1610 nM and 1120 nM, respectively.
For `CCCCc1nnc(OC2CCN(C)CC2)cc1-c1ccc(OC2CCCC2)cc1` [Example 51, 3-butyl-4-(4-cyclopentyloxy-phenyl)-6-(1-methyl-piperidin-4-yloxy)-pyridazine dihydrochloride], the values for the IC50 (in assay [1]; on sRAGE binding to S100b) were 2620 nM and 2940 nM, respectively.
For `CCCCc1nnc(OC2CCN(CCOC)CC2)cc1-c1ccc(OC2CCCCC2)cc1` [Example 23, 3-Butyl-4-(4-cyclohexyloxy-phenyl)-6-[1-(2-methoxy-ethyl)-piperidin-4-yloxy]-pyridazine dihydrochloride], the IC50 is 1110 nM in assay [1] and 780 nM at sRAGE binding to S100b.
The like results for `CCCCc1nnc(OC2CCN(C)CC2)cc1-c1ccc(OCC2CCOCC2)cc1` [Example 54, 3-butyl-6-(1-methyl-piperidin-4-yloxy)-4-[4-(tetrahydro-pyran-4-ylmethoxy)-phenyl]-pyridazine dihydrochloride] were, in that order, 5450 nM and 3650 nM.
For `CCCCc1nnc(OCC2CCN(C)CC2)cc1-c1ccc(OCc2ccccc2)cc1` [Example 2, 4-(4-Benzyloxy-phenyl)-3-butyl-6-(1-methyl-piperidin-4-ylmethoxy)-pyridazine], in that order: 1230 nM and 1320 nM.
The like results for `CCCCc1nnc(OC2CCN(C)CC2)cc1-c1ccc(OC2CCCCC2)c(-c2cnoc2)c1` [Example 72, 3-Butyl-4-(4-cyclohexyloxy-3-isoxazol-4-yl-phenyl)-6-(1-methyl-piperidin-4-yloxy)-pyridazine dihydrochloride] were, in that order, 1200 nM and 1690 nM.
For `CCCCc1nnc(OC2CCN(C)CC2)cc1-c1ccc(OC2CCCCC2)c(C(=O)OC)c1` [Example 71, 5-[3-Butyl-6-(1-methyl-piperidin-4-yloxy)-pyridazin-4-yl]-2-cyclohexyloxy-benzoic acid methyl ester dihydrochloride], the IC50 was determined as 1590 nM in assay [1] and 1130 nM on sRAGE binding to S100b.
The like results for `CCCCc1nnc(C(=O)NCC2CN(C)CCC2O)cc1-c1ccc(OC2CCCCC2)cc1` (stereo not drawn) [Example 100, 6-Butyl-5-(4-cyclohexyloxy-phenyl)-pyridazine-3-carboxylic acid (4-hydroxy-1-methyl-piperidin-3-ylmethyl)-amide dihydrochloride] were, in that order, 1160 nM and 590 nM.
For `CCCCc1nnc(OC2CCN(C)CC2)cc1-c1ccc(OC2CCCCC2)c(-c2nnnn2C)c1` [Example 70, 3-Butyl-4-[4-cyclohexyloxy-3-(1-methyl-1H-tetrazol-5-yl)-phenyl]-6-(1-methyl-piperidin-4-yloxy)-pyridazine dihydrochloride], in that order: 2940 nM and 2170 nM.
For `CCCCc1nnc(C(=O)N2CCO[C@H](CN(C)C)C2)cc1-c1ccc(OC2CCCCC2)cc1` [Example 98, [6-Butyl-5-(4-cyclohexyloxy-phenyl)-pyridazin-3-yl]-((R)-2-dimethylaminomethyl-morpholin-4-yl)-methanone dihydrochloride], in that order: 1620 nM and 1990 nM.
As for `CCCCc1nnc(OC2CCN(C)CC2)cc1-c1ccc(OCCC2CCCCC2)cc1` [Example 52, 3-butyl-4-[4-(2-cyclohexyl-ethoxy)-phenyl]-6-(1-methyl-piperidin-4-yloxy)-pyridazine dihydrochloride], the IC50 amounted to 690 nM in assay [1] and 650 nM at sRAGE binding to S100b.
With `CCCCc1nnc(OCC2(F)CCN(C)CC2)cc1-c1ccc(OC2CCCCC2)cc1` [Example 45, 3-Butyl-4-(4-cyclohexyloxy-phenyl)-6-(4-fluoro-1-methyl-piperidin-4-ylmethoxy)-pyridazine dihydrochloride], the IC50 in assay [1] is 500 nM; on sRAGE binding to S100b, 1150 nM.
For `CCCCc1nnc(OC2CCN(C)CC2)cc1-c1ccc(OC2CCCCC2)c(-c2ncco2)c1` [Example 65, 3-Butyl-4-(4-cyclohexyloxy-3-oxazol-2-yl-phenyl)-6-(1-methyl-piperidin-4-yloxy)-pyridazine dihydrochloride salt], in that order: 1780 nM and 2120 nM.
The like results for `CCCCc1nnc(OC2CCN(CCO)CC2)cc1-c1ccc(OC2CCCCC2)cc1` [Example 17, 2-{4-[6-Butyl-5-(4-cyclohexyloxy-phenyl)-pyridazin-3-yloxy]-piperidin-1-yl}-ethanol dihydrochloride] were, in that order, 820 nM and 810 nM.
For `CCCCc1nnc(C(=O)NCC2=CCN(C)CC2)cc1-c1ccc(OC2CCCCC2)cc1` [Example 108, 6-Butyl-5-(4-cyclohexyloxy-phenyl)-pyridazine-3-carboxylic acid (1-methyl-1,2,3,6-tetrahydro-pyridin-4-ylmethyl)-amide dihydrochloride], in that order: 860 nM and 1170 nM.
